System: 596521-263-R-J1-PDC complex spheroids, viability % of control
Assay: Anticancer human tumor 596521-263-R-J1-PDC patient-derived soft tissue sarcoma cell line growth inhibition [GQUAD]
Settings: for IC50: curve of first compound; for viability, T/C: stronger effect = lower value
Summary of the method: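 Tumor cells were grown as complex spheroids with HUVEC endothelial cells and mesenchymal stem cells as stroma. G-quadruplex stabilizers were combined with targeted agents over half-log dilutions from near the clinical Cmax, or from 10 microM.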

[1] = second compound 0.0316 µM, first compound 0.0316 µM
[2] = second compound 0.0316 µM, first compound 0.1 µM
[3] = second compound 0.0316 µM, first compound 0.316 µM
[4] = second compound 0.0316 µM, first compound 1 µM
[5] = second compound 0.0316 µM, first compound 3.16 µM
[6] = second compound 0.0316 µM, first compound 10 µM
[7] = second compound 0.1 µM, first compound 0.0316 µM
[8] = second compound 0.1 µM, first compound 0.1 µM
[9] = second compound 0.1 µM, first compound 0.316 µM
[10] = second compound 0.1 µM, first compound 1 µM
[11] = second compound 0.1 µM, first compound 3.16 µM
[12] = second compound 0.1 µM, first compound 10 µM
[13] = second compound 0.316 µM, first compound 0.0316 µM
[14] = second compound 0.316 µM, first compound 0.1 µM
[15] = second compound 0.316 µM, first compound 0.316 µM
[16] = second compound 0.316 µM, first compound 1 µM
[17] = second compound 0.316 µM, first compound 3.16 µM
[18] = second compound 0.316 µM, first compound 10 µM
[19] = second compound 1 µM, first compound 0.0316 µM
[20] = second compound 1 µM, first compound 0.1 µM
[21] = second compound 1 µM, first compound 0.316 µM
[22] = second compound 1 µM, first compound 1 µM
[23] = second compound 1 µM, first compound 3.16 µM
[24] = second compound 1 µM, first compound 10 µM
[25] = second compound 3.16 µM, first compound 0.0316 µM
[26] = second compound 3.16 µM, first compound 0.1 µM
[27] = second compound 3.16 µM, first compound 0.316 µM
[28] = second compound 3.16 µM, first compound 1 µM
[29] = second compound 3.16 µM, first compound 3.16 µM
[30] = second compound 3.16 µM, first compound 10 µM
[31] = second compound 10 µM, first compound 0.0316 µM
[32] = second compound 10 µM, first compound 0.1 µM
[33] = second compound 10 µM, first compound 0.316 µM
[34] = second compound 10 µM, first compound 1 µM
[35] = second compound 10 µM, first compound 3.16 µM
[36] = second compound 10 µM, first compound 10 µM
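Note: spheroids exposed to drugs for 7 days before viability reading.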
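Throughout, for viability, T/C: 100% = DMSO vehicle control viability.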

CC(C)(O)C1CCC(Nc2ccc3ncc(-c4cccc(C(F)(F)F)c4)n3n2)CC1 (stereo unspecified) + CN(C)c1ccc(Nc2c3ccc(NC(=O)CCN4CCCC4)cc3nc3cc(NC(=O)CCN4CCCC4)ccc23)cc1
IC50 (second compound 0.0316 µM): 1420 nM
IC50 (second compound 0.1 µM): 1370 nM
IC50 (second compound 0.316 µM): 1560 nM
IC50 (second compound 1 µM): 1720 nM
IC50 (second compound 3.16 µM): 1520 nM
IC50 (second compound 10 µM): 915 nM
viability, T/C [1]: 96.8%
viability, T/C [2]: 97.3%
viability, T/C [3]: 81.7%
viability, T/C [4]: 65%
viability, T/C [5]: 16.9%
viability, T/C [6]: 19.1%
viability, T/C [7]: 94.2%
viability, T/C [8]: 84.5%
viability, T/C [9]: 87%
viability, T/C [10]: 61%
viability, T/C [11]: 20.4%
viability, T/C [12]: 21.6%
viability, T/C [13]: 97%
viability, T/C [14]: 113%
viability, T/C [15]: 83.4%
viability, T/C [16]: 70.5%
viability, T/C [17]: 19.9%
viability, T/C [18]: 20.2%
viability, T/C [19]: 92.9%
viability, T/C [20]: 95.9%
viability, T/C [21]: 78.6%
viability, T/C [22]: 75.5%
viability, T/C [23]: 19.1%
viability, T/C [24]: 24%
viability, T/C [25]: 87.1%
viability, T/C [26]: 97.3%
viability, T/C [27]: 83.8%
viability, T/C [28]: 66.4%
viability, T/C [29]: 18.1%
viability, T/C [30]: 24.2%
viability, T/C [31]: 65.3%
viability, T/C [32]: 61.7%
viability, T/C [33]: 61.1%
viability, T/C [34]: 49%
viability, T/C [35]: 13.8%
viability, T/C [36]: 13.1%

Nc1ccn(C2OC(CO)C(O)C2(F)F)c(=O)n1 (stereo unspecified) + CN(C)c1ccc(Nc2c3ccc(NC(=O)CCN4CCCC4)cc3nc3cc(NC(=O)CCN4CCCC4)ccc23)cc1
IC50 (second compound 0.0316 µM): < 31.6 nM
IC50 (second compound 0.1 µM): < 31.6 nM
IC50 (second compound 0.316 µM): 121 nM
IC50 (second compound 1 µM): < 31.6 nM
IC50 (second compound 3.16 µM): < 31.6 nM
IC50 (second compound 10 µM): < 31.6 nM
viability, T/C [1]: 48.3%
viability, T/C [2]: 39.2%
viability, T/C [3]: 40.5%
viability, T/C [4]: 37.3%
viability, T/C [5]: 44.5%
viability, T/C [6]: 40.2%
viability, T/C [7]: 53.9%
viability, T/C [8]: 42.2%
viability, T/C [9]: 40%
viability, T/C [10]: 39.1%
viability, T/C [11]: 44.1%
viability, T/C [12]: 38.1%
viability, T/C [13]: 53.6%
viability, T/C [14]: 46.6%
viability, T/C [15]: 48.7%
viability, T/C [16]: 49.8%
viability, T/C [17]: 40.1%
viability, T/C [18]: 39.4%
viability, T/C [19]: 46.7%
viability, T/C [20]: 41.5%
viability, T/C [21]: 39.3%
viability, T/C [22]: 42.2%
viability, T/C [23]: 39%
viability, T/C [24]: 40.5%
viability, T/C [25]: 44.7%
viability, T/C [26]: 44.2%
viability, T/C [27]: 40.6%
viability, T/C [28]: 42.5%
viability, T/C [29]: 40.5%
viability, T/C [30]: 35.6%
viability, T/C [31]: 42.4%
viability, T/C [32]: 37.4%
viability, T/C [33]: 33.4%
viability, T/C [34]: 35.2%
viability, T/C [35]: 38%
viability, T/C [36]: 38.2%

COc1ccc([C@@H](O)c2cc(-c3ncnc4cc(N5CCOCC5)ccc34)c(F)cc2Cl)nn1 + CN(C)c1ccc(Nc2c3ccc(NC(=O)CCN4CCCC4)cc3nc3cc(NC(=O)CCN4CCCC4)ccc23)cc1
IC50 (second compound 0.0316 µM): 7690 nM
IC50 (second compound 0.1 µM): 9120 nM
IC50 (second compound 0.316 µM): > 10000 nM
IC50 (second compound 1 µM): 7490 nM
IC50 (second compound 3.16 µM): > 10000 nM
IC50 (second compound 10 µM): 1160 nM
viability, T/C [1]: 95.1%
viability, T/C [2]: 91.2%
viability, T/C [3]: 97.5%
viability, T/C [4]: 88.4%
viability, T/C [5]: 67.7%
viability, T/C [6]: 44.8%
viability, T/C [7]: 89.5%
viability, T/C [8]: 101%
viability, T/C [9]: 91.9%
viability, T/C [10]: 77.1%
viability, T/C [11]: 65.6%
viability, T/C [12]: 48.1%
viability, T/C [13]: 96.1%
viability, T/C [14]: 94.2%
viability, T/C [15]: 81.1%
viability, T/C [16]: 81.8%
viability, T/C [17]: 64.1%
viability, T/C [18]: 51.8%
viability, T/C [19]: 93.8%
viability, T/C [20]: 84.3%
viability, T/C [21]: 93.9%
viability, T/C [22]: 83.4%
viability, T/C [23]: 63.2%
viability, T/C [24]: 45.6%
viability, T/C [25]: 87.4%
viability, T/C [26]: 87.5%
viability, T/C [27]: 84.7%
viability, T/C [28]: 66.1%
viability, T/C [29]: 64.1%
viability, T/C [30]: 49.5%
viability, T/C [31]: 70.5%
viability, T/C [32]: 56.7%
viability, T/C [33]: 59.1%
viability, T/C [34]: 48.4%
viability, T/C [35]: 49.4%
viability, T/C [36]: 31.6%

From PubChem BioAssay AID2060500 (Molecular Pharmacology Branch, DTP, NCI, 2025)
